Laboratory results reported in patent publication US9884821B2, “N1-cyclic amine-N5-substituted biguanide derivatives, methods of preparing the same and pharmaceutical composition comprising the same” (IMMUNOMET THERAPEUTICS INC., priority 2013, dated 2018).

Experiments:
AMPK = AMPK activation effect (AMPK [pT172] ELISA) in MCF7 cells; type: cell-based, human; details: 24 hours; for AMPK activation effect (%) 5 μM / AMPK activation effect (%) 10 μM / AMPK activation effect (%) 50 μM: AMPKα Thr172 phosphorylation relative to untreated cells; for AC150: concentration at which AMPK activation reached 150%
Experimental: ELISA kit (Invitrogen, Catalog No. KH00651).
MCF7 cells were cultured in a DMEM medium supplemented with 10% fatal bovine serum (commercially available from Gibco Life Technologies (US)). Thereafter, the cultured MCF7 cells were put into a 6-well plate with approximately 5×10^5 cells per well, and cultured in an incubator supplied with 5% CO2. Culture media were treated with the derivatives synthesized in the Examples at concentrations of 5, 10 and 50 uM, and then cultured for 24 hours. […] Subsequently, the cells were lysed according to a method presented in the operation manual of the AMPK [pT172] ELISA kit, and 20 μg of a cell lysate was then yielded through protein assay. Thereafter, the AMPK activation effect was obtained by determining a degree of phosphorylation of a 172nd threonine residue (Thr172) of the AMPKα from the cell lysate according to the method presented in the operation manual of the AMPK [pT172] ELISA kit.

HCT116 cells = experiment: Effect of inhibiting cancer cell proliferation (MTT) in HCT116 cells; type: cell-based, human; details: for inhibition at 25 µM: read-out: Cell growth inhibition (%) at 25 μM; for inhibition at 100 µM: read-out: Cell growth inhibition (%) at 100 μM
Source text: HCT116 cells derived from human colorectal cancer were used, and an effect of inhibiting cancer cell proliferation of the biguanide derivative was confirmed by measuring a concentration value (cell growth inhibition concentration, GIC50) at which cell growth was inhibited by 50% using a 3-(4,5-dimethylthiazol-2-yl)-2,5-diphenyltetrazolium bromide (MTT) reagent.
First, HCT116 cells (purchased from the KCLB) were put on a 96-well plate and cultured in a DMEM medium supplemented with 10% fatal bovine serum (commercially available from Gibco Life Technologies (US)) for 16 hours so that approximately 5,000 cells were counted in each well. Subsequently, to obtain the GIC50 value of each compound, the culture media were treated with 100 μM, 25 μM, 6.25 μM, 1.56 μM or 0.39 μM of the compound, and then cultured for 48 hours. In order to determine whether the cells survived after treatment with the compounds, MTT (commercially available from AMRESCO (US)) was added to the culture media which were then cultured for another 3 hours. Formed formazane crystals were dissolved using dimethyl sulfoxide (DMSO) and the absorbance of the resulting solution was measured at 560 nm. After the 48-hour culture, a ratio of a living cell count on a well plate treated with the compounds synthesized in the Examples to a cell count cultured on a well plate not treated with the compound was indicated as cell viability (%) according to the concentration of each treated compound. The cell viability (%) was used to plot a cell viability curve graph and calculate a concentration (GIC50) value of the compound at which the growth was inhibited by 50%, thereby confirming the inhibition effect of cancer cell proliferation.

[1] = Homo sapiens, HCT-116, 48 h, 25 μM

Compound | GI50 (HCT116 cells; Homo sapiens, HCT-116, 48 h) [µM] | GI50 (HCT116 cells; 48 hours, hydrochloride) [µM] | AMPK activation effect (%) 5 μM (AMPK) [%] | AMPK activation effect (%) 10 μM (AMPK) [%] | AC150 (AMPK) [µM] | inhibition at 25 µM (HCT116 cells; [1]) [%] | AMPK activation effect (%) 50 μM (AMPK) [%] | inhibition at 100 µM (HCT116 cells; Homo sapiens, HCT-116, 48 h) [%] | AMPK activation effect (%) 5 μM (AMPK; hydrochloride) [%] | AMPK activation effect (%) 10 μM (AMPK; hydrochloride) [%] | AC150 (AMPK; hydrochloride) [µM] | Cell growth inhibition (%) at 25 μM (HCT116 cells; 25 μM, 48 hours, hydrochloride) [%]
CC1CCCCN1C(=N)NC(=N)Nc1ccc(Cl)c(C(F)(F)F)c1.Cl (stereo not shown) [Example 80, N1-(2-methyl)piperidine-N5-(4-chloro, 3-trifluoromethyl)phenyl biguanide hydrochloride] | 6.8 | – | 334 | 590 | 1.1 | 99.7 | – | – | – | – | – | –
Cl.N=C(NC(=N)N1CC=CC1)Nc1ccc(C(F)(F)F)cc1 [Example 5, N1-1,2-dihydropyrrole-N5-(4-trifluoromethyl)phenyl biguanide hydrochloride] | 18 | – | – | 235 | 2.8 | – | 223 | 99.7 | – | – | – | –
CC1CCCN(C(=N)NC(=N)NCc2ccc(OC(F)(F)F)cc2)C1.Cl (stereo not shown) [Example 84, N1-(3-methyl)piperidine-N5-(4-trifluoromethoxy)benzyl biguanide hydrochloride] | 10.4 | – | 317 | 555 | 1.1 | 97 | – | – | – | – | – | –
COc1ccc(NC(=N)NC(=N)N2CC=CCC2)cc1.Cl [Example 40, N1-1,2,3,6-tetrahydropyridine-N5-(4-methoxyl)phenyl biguanide hydrochloride] | > 100 | – | – | 122 | 37.8 | – | 163 | 37.4 | – | – | – | –
Cl.N=C(NC(=N)N1CC=CCC1)Nc1ccc(F)c(C(F)(F)F)c1 [Example 32, N1-1,2,3,6-tetrahydropyridine-N5-(4-fluoro, 3-trifluoromethyl)phenyl biguanide hydrochloride] | 7.9 | – | – | 837 | 0.62 | – | – | 99.4 | – | – | – | –
CC1CCCN(C(=N)NC(=N)NCc2ccc(Cl)cc2)C1.Cl (stereo not shown) [Example 66, N1-(3-methyl)piperidine-N5-(4-chloro)benzyl biguanide hydrochloride] | 18.5 | – | 101 | 204 | 6.2 | 67.4 | – | – | – | – | – | –
CC1CCCN(C(=N)NC(=N)Nc2ccc(C(F)(F)F)c(F)c2)C1.Cl (stereo not shown) [Example 70, N1-(3-methyl)piperidine-N5-(3-fluoro, 4-trifluoromethyl)phenyl biguanide hydrochloride] | 3.9 | – | 365 | 602 | 0.9 | 100 | – | – | – | – | – | –
CC1CCCCN1C(=N)NC(=N)Nc1ccc(Cl)cc1.Cl (stereo not shown) [Example 77, N1-(2-methyl)piperidine-N5-(4-chloro)phenyl biguanide hydrochloride] | 11.3 | – | 154 | 212 | 4.5 | 100 | – | – | – | – | – | –
CC1CCCC(C)N1C(=N)NC(=N)Nc1ccc(F)c(C(F)(F)F)c1.Cl (stereo not shown) [Example 93, N1-(2,6-dimethyl)piperidine-N5-(4-fluoro, 3-trifluoromethyl)phenyl biguanide hydrochloride] | 3 | – | 190 | 422 | 2.0 | 100 | – | – | – | – | – | –
CC1CCCN(C(=N)NC(=N)Nc2ccc(F)c(C(F)(F)F)c2)C1.Cl (stereo not shown) [Example 85, N1-(3-methyl)piperidine-N5-(4-fluoro, 3-trifluoromethyl)phenyl biguanide hydrochloride] | – | 7.1 | – | – | – | – | – | – | 345 | 436 | 0.7 | 100.2
CC1CCCC(C)N1C(=N)NC(=N)Nc1cccc(OC(F)(F)F)c1.Cl (stereo not shown) [Example 90, N1-(2,6-dimethyl)piperidine-N5-(3-trifluoromethoxy)phenyl biguanide hydrochloride] | 3.2 | – | 281 | 317 | 0.8 | 100 | – | – | – | – | – | –

Now from value to compound, other results behind:

GI50 (HCT116 cells; Homo sapiens, HCT-116, 48 h) [µM] | GI50 (HCT116 cells; 48 hours, hydrochloride) [µM] | Compound | AMPK activation effect (%) 5 μM (AMPK) [%] | AMPK activation effect (%) 10 μM (AMPK) [%] | AC150 (AMPK) [µM] | inhibition at 25 µM (HCT116 cells; [1]) [%] | AMPK activation effect (%) 50 μM (AMPK) [%] | inhibition at 100 µM (HCT116 cells; Homo sapiens, HCT-116, 48 h) [%] | AMPK activation effect (%) 5 μM (AMPK; hydrochloride) [%] | AMPK activation effect (%) 10 μM (AMPK; hydrochloride) [%] | AC150 (AMPK; hydrochloride) [µM] | Cell growth inhibition (%) at 25 μM (HCT116 cells; 25 μM, 48 hours, hydrochloride) [%]
2.9 | – | CC1CCCC(C)N1C(=N)NC(=N)Nc1ccc(OC(F)(F)F)c(F)c1.Cl (stereo not shown) [Example 95, N1-(2,6-dimethyl)piperidine-N5-(3-fluoro, 4-trifluoromethoxy)phenyl biguanide] | 130 | 326 | 3.1 | 101 | – | – | – | – | – | –
107 | – | COc1cc(NC(=N)NC(=N)N2CC=CC2)cc(OC)c1.Cl [Example 45, N1-1,2-dihydropyrrole-N5-(3,5-dimethoxy)phenyl biguanide hydrochloride] | – | 202 | 4.8 | – | 299 | 47.2 | – | – | – | –
84.8 | – | Cl.N=C(NCc1cccc(C(F)(F)F)c1)NC(=N)N1CC=CC1 [Example 12, N1-1,2-dihydropyrrole-N5-(3-trifluoromethyl)benzyl biguanide hydrochloride] | – | 97 | 13.8 | – | 357 | 53.8 | – | – | – | –
> 100 | – | Cl.N=C(N)NC(=N)N1CC=CCC1 [Example 61, N1-1,2,3,6-tetrahydropyridine biguanide hydrochloride] | – | 123 | >50 | – | 132 | 10.5 | – | – | – | –
7.8 | – | Cl.N=C(NC(=N)N1CC=CCC1)Nc1cccc(C(F)(F)F)c1 [Example 31, N1-1,2,3,6-tetrahydropyridine-N5-(3-trifluoromethyl)phenyl biguanide hydrochloride] | – | 391 | 1.8 | – | – | 99.5 | – | – | – | –
9.3 | – | CC1CCCN(C(=N)NC(=N)Nc2ccc(OC(F)(F)F)c(F)c2)C1.Cl (stereo not shown) [Example 75, N1-(3-methyl)piperidine-N5-(3-fluoro, 4-trifluoromethoxy)phenyl biguanide hydrochloride] | 133 | 259 | 3.9 | 100 | – | – | – | – | – | –
17.5 | – | Cl.N=C(NCc1cccc(OC(F)(F)F)c1)NC(=N)N1CC=CC1 [Example 14, N1-1,2-dihydropyrrole-N5-(3-trifluoromethoxy)benzyl biguanide hydrochloride] | – | 151 | 8.4 | – | 507 | 98.8 | – | – | – | –
9.1 | – | CC1=CCN(C(=N)NC(=N)Nc2cccc(C(F)(F)F)c2)C1.Cl [Example 19, N1-(3-methyl)-1,2-dihydropyrrole-N5-(3-trifluoromethyl)phenyl biguanide hydrochloride] | – | 306 | 1.5 | – | – | 99.6 | – | – | – | –
12.9 | – | Cl.N=C(NC(=N)N1CC=CC1)Nc1cccc(C(F)(F)F)c1 [Example 6, N1-1,2-dihydropyrrole-N5-(3-trifluoromethyl)phenyl biguanide hydrochloride] | – | 124 | >50 | – | 136 | 99.6 | – | – | – | –
4.9 | – | CC1=CCN(C(=N)NC(=N)Nc2cccc(OC(F)(F)F)c2)C1.Cl [Example 25, N1-(3-methyl)-1,2-dihydropyrrole-N5-(3-trifluoromethoxy)phenyl biguanide hydrochloride] | – | 376 | 2.2 | – | – | 96.6 | – | – | – | –
7 | – | CC1CCCN(C(=N)NC(=N)Nc2ccc(OC(F)(F)F)cc2)C1.Cl (stereo not shown) [Example 82, N1-(3-methyl)piperidine-N5-(4-trifluoromethoxy)phenyl biguanide hydrochloride] | 401 | 474 | 0.5 | 100 | – | – | – | – | – | –
